Two molecules from patent US8343961B2, “Substituted heterocyclic compounds” (ArQule, Inc., priority 2009, dated 2013) can be followed below.

The test system of one assay is NCI-H1299. Kind of assay: MTS Cellular Assay, NCI-H1299. The note with it: Homo sapiens, NCI-H1299, 72 hours. It is filed as cell-based. As for the experimental part:
(§1) Cells were maintained at 37° C., 5% CO2 in DMEM media supplemented with 1% fetal bovine serum, penicillin/streptomycin and fungizone (Invitrogen). Cells were seeded into 96-well tissue culture plates at 3000 per well and cultured at 37° C. for 18 hours. Test compounds were dissolved and diluted to 300× in DMSO then further diluted 1:40 in DMEM before addition to cells (1:7.5 dilution). Cells were incubated with test compounds for 72 hours followed by incubation with tetrazolium compound (3-(4,5-dimethylthiazol-2-yl)-5-(3-carboxymethoxyphenyl)-2-(4-sulfophenyl)-2H-tetrazolium, inner salt; MTS) and the electron coupling reagent, phenazine methosulfate (PMS) for 4 hours. […] The ability of compounds to inhibit cell growth in this assay is correlated with the reduction of dehydrogenase enzyme activity found in metabolically active cells. The measurement of the absorbance of the formazan was assessed using an ENVISION™ (Perkin Elmer) microplate reader at 492 nm. The calculated IC50 value is the concentration of the test compound that causes a 50% decrease in the absorbance.

A further assay has as its system KATO III. The assay can be described thus: MTS Cellular Assay, KATO III. It is filed as cell-based. The note with it: Homo sapiens, 72 hours. As for the experimental part:
as §1

The next assay concerns PACA-2. Kind of assay: MTS Cellular Assay, PACA-2. The note with it: PACA-2, 72 hours. The assay is classed as cell-based. The procedure:
as §1

The target in a further assay is T1, Tec kinase (Homo sapiens, UniProt P42680).
T1 sequence (P42680 1-631): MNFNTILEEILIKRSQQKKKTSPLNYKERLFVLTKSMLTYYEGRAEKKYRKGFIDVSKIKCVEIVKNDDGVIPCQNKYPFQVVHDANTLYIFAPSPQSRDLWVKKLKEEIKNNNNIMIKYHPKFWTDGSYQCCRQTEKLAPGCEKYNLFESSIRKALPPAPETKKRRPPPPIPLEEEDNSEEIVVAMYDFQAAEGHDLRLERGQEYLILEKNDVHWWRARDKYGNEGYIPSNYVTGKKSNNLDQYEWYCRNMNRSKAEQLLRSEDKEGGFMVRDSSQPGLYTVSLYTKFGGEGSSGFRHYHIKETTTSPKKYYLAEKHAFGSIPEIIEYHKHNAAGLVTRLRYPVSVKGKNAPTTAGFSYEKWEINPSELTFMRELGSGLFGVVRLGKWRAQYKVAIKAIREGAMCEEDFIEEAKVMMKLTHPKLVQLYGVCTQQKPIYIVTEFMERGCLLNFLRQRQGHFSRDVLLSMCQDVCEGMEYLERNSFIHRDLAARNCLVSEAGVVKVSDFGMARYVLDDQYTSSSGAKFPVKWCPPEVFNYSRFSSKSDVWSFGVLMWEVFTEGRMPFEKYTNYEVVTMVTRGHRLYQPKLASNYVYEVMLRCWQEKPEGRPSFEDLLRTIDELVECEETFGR
The assay can be described thus: Tec Kinase Activity Assay. It is filed as biochemical. The note with it: read-out: Tec % INH, at 30 uM. In short, it runs like this: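 Biochemical Tec kinase reaction in Tris-HCl/MgCl2/EGTA/DTT buffer with 75 μM ATP, compound pre-incubated with enzyme for 30 min, then biotinylated Pyk-2 substrate added for 2 h at room temperature. Phosphorylated product captured on streptavidin and detected by anti-phosphotyrosine ELISA with alkaline phosphatase/Attophos fluorescence.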

Another assay relates to PC-3. The assay can be described thus: MTS Cellular Assay, PC-3. The assay is classed as cell-based. The note with it: Homo sapiens, PC-3, 72 hours. The procedure:
as §1

In the next assay the test system is MDA-MB-231. Kind of assay: MTS Cellular Assay, MDA-MB-231. The note with it: Homo sapiens, MDA-MB-231, 72 hours. The assay is classed as cell-based. As for the experimental part:
as §1

The next assay has as its system DLD-1. Kind of assay: MTS Cellular Assay, DLD-1. The note with it: Homo sapiens, DLD-1, 72 hours. It is filed as cell-based. As for the experimental part:
as §1

With `Nc1nc(N2CCN(Cc3ccc(Cl)cc3)c3ccccc3C2)c2cn[nH]c2n1` [Compound 23, 4-[1-(4-chlorobenzyl)-1,2,3,5-tetrahydro-4H-1,4-benzodiazepin-4-yl]-1H-pyrazolo[3,4-d]pyrimidin-6-amine], the inhibition at 10 µM was greater than 79% with NCI-H1299; less than 50% in the assay on KATO III; less than 50% in the assay with PACA-2; less than 50% in the assay with PC-3; 50 to 79% with MDA-MB-231; greater than 79% in the assay with DLD-1. Further, the inhibition at 30 µM on Tec kinase is less than 50%.

As to `CC(C)(C)c1ccc(CN2CCN(c3nc(N)nc4[nH]cnc34)Cc3ccccc32)cc1` [Compound 29, 6-[1-(4-tert-butylbenzyl)-1,2,3,5-tetrahydro-4H-1,4-benzodiazepin-4-yl]-9H-purin-2-amine], the inhibition at 10 µM in the assay with NCI-H1299, in the assay on KATO III, with PACA-2, in the assay on PC-3, in the assay with MDA-MB-231 and in the assay with DLD-1 was less than 50% each time. Moreover, the inhibition at 30 µM on Tec kinase was less than 50%.
